Positions of bridges follow the written chain, without caps; N, C: chain ends. Non-standard residues stand in square brackets, D forms with d. Residues, ends and D or L forms follow the SMILES beside them. *: point of attachment. Malonyl(2,2-Me2,histaminyl) = CC(C)(C(=O)NCCc1cnc[nH]1)C(=O)*; Ala(1H-tetrazol-5-yl) = N[C@@H](Cc1nnn[nH]1)C(=O)O; Nle = CCCC[C@H](N)C(=O)O; Aib = CC(C)(N)C(=O)O
Experiments:
mouse GLP1 receptor = biological target: T1, mouse GLP1 receptor (Mus musculus, UniProt O35659); assay: cAMP accumulation assay, functional agonism of mouse GLP1 receptor; type: cell-based; conditions: HEK cells transiently transfected with mouse GLP1 receptor, HTRF cAMP; for Emax: HEK293, read-out: Mouse GLP-1R agonist cAMP Emax; for EC50: read-out: Mouse GLP-1R agonist cAMP pEC50 (converted)
T1 construct: expressed in transfected cells; host or cells: HEK cells, transient transfection with GeneJuice
T1 sequence (O35659 22-463): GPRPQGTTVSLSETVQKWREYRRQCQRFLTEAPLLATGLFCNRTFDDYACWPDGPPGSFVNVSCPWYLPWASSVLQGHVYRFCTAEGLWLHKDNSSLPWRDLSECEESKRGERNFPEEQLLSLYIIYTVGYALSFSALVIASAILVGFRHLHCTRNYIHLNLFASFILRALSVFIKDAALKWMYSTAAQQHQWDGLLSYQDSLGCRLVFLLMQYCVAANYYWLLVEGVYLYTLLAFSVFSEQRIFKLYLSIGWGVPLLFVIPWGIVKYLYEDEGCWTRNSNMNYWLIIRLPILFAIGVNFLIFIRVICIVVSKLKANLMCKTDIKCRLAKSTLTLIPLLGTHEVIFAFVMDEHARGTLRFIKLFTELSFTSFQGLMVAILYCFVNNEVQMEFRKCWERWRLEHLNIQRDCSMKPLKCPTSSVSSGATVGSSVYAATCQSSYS
Description: CAMP production upon agonist stimulation of mouse GLP2 or GLP1 receptors was assessed utilizing HiRange cAMP kit (Cisbio). In brief, HEK cells were transiently transfected for 24 hours with cDNA using GeneJuice Transfection reagent (EMD Millipore) and frozen at −80° C. for later use in the assay. […] Cells were prepared in the assay buffer (HBSS (Lonza) supplemented with 0.5 mM IBMX (Tocris)). After 45 min incubation at 37° C., the reaction was stopped by addition of the HTRF detection reagents in the lysis buffer provided in the kit. Following 1-hour incubation at RT, plates were read on Pherastar FS (BMG Labtech, Inc.) using standard HTRF settings. Dotmatics Studies software was used for calculation of pEC50 values by fitting data to a four-parameter concentration response curve.

mouse GLP2 receptor = biological target: T2, mouse GLP2 receptor (Mus musculus, UniProt Q5IXF8); assay: cAMP accumulation assay, functional agonism of mouse GLP2 receptor; type: cell-based; conditions: HEK cells transiently transfected with mouse GLP2 receptor, HTRF cAMP; for Emax: HEK293, read-out: Mouse GLP-2R agonist cAMP Emax; for EC50: read-out: Mouse GLP-2R agonist cAMP pEC50 (converted)
T2 construct: expressed in transfected cells; host or cells: HEK cells, transient transfection with GeneJuice
T2 sequence (Q5IXF8 1-512): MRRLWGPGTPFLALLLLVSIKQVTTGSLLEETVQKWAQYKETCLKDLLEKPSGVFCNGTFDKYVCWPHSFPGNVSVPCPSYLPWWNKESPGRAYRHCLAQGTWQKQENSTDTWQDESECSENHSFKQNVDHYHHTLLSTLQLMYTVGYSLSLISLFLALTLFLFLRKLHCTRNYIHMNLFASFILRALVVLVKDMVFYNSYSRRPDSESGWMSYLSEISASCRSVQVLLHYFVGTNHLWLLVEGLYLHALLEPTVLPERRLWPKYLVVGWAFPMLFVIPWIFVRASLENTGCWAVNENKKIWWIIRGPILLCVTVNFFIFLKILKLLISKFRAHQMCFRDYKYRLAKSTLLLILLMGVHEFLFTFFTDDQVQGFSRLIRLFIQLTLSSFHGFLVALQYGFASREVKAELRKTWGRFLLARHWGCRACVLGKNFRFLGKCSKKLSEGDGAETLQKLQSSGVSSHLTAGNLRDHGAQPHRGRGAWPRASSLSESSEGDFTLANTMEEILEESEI
In short: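 pEC50 values come from four-parameter fits of HTRF cAMP signal, read after lysis and 1 h RT incubation. Compounds were incubated 45 min at 37 °C with previously frozen, transiently transfected HEK cells (8000/well) in HBSS containing 0.5 mM IBMX.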

human GLP1 receptor = biological target: T3, human GLP1 receptor (Homo sapiens, UniProt P43220); assay: cAMP accumulation assay, functional agonism of human GLP1 receptor; type: cell-based; conditions: HEK cells infected with human GLP1 receptor BacMam virus, HTRF cAMP; for Emax: HEK293, read-out: Human GLP-1R agonist cAMP Emax; for EC50: read-out: Human GLP-1R agonist cAMP pEC50 (converted)
T3 construct: expressed in transfected cells; host or cells: HEK cells, BacMam virus transduction
T3 sequence (P43220 24-463): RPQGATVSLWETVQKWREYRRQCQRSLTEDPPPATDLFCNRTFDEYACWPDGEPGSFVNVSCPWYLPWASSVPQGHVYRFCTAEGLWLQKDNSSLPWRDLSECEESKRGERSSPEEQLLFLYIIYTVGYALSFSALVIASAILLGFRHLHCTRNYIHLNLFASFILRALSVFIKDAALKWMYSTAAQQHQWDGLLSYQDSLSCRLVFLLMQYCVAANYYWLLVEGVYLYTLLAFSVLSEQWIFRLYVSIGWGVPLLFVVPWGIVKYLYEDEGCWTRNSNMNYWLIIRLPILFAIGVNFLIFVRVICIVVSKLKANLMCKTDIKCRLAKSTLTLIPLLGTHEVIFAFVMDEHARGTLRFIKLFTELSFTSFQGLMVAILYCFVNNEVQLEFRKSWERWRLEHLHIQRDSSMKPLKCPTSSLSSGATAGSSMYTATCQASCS
In short: (§1)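 HTRF cAMP read-out: HEK cells expressing GLP1 or GLP2 receptor via 24 h BacMam infection, frozen before use; agonist exposure 45 min, 37° C, HBSS + 0.5 mM IBMX; stopped with detection reagents in lysis buffer.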

human GLP2 receptor = biological target: T4, human GLP2 receptor (Homo sapiens, UniProt O95838); assay: cAMP accumulation assay, functional agonism of human GLP2 receptor; type: cell-based; conditions: HEK cells infected with human GLP2 receptor BacMam virus, HTRF cAMP; for Emax: HEK293, read-out: Human GLP-2R agonist cAMP Emax; for EC50: read-out: Human GLP-2R agonist cAMP pEC50 (converted)
T4 construct: expressed in transfected cells; host or cells: HEK cells, BacMam virus transduction
T4 sequence (O95838 1-553): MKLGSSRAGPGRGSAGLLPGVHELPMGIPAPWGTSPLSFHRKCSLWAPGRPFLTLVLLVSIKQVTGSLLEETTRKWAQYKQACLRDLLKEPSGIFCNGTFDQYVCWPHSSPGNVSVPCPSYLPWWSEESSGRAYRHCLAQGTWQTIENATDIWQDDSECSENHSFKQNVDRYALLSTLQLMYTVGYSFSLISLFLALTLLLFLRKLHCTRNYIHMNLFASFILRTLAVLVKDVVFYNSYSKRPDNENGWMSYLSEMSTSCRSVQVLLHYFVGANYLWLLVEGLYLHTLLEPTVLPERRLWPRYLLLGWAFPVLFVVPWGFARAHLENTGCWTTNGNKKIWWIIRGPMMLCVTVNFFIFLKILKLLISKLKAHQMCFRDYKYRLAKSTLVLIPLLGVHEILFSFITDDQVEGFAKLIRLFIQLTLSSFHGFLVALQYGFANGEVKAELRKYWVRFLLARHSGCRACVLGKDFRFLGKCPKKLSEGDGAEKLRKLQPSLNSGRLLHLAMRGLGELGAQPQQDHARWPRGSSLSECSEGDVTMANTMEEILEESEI
In short: as §1

[1] = Stability of peptides in Fasted-State Simulated Intestinal Fluid (FaSSIF); type: in vitro ADME; conditions: FaSSIF with 10 mg/ml pancreatin, 37° C.; for remaining at 0.25 h: FaSSIF pH 6.5 with 10 mg/ml pancreatin, t = 15 mins
Description: Stability of peptides was tested in Fasted-State Simulated Intestinal Fluid (FaSSIF) prepared according to manufacturer's protocol (Biorelevant, art.no. FFF01, pH 6.5). […] FaSSIF was pre-incubated for 15 min at 37° C. and spiked with test and reference item working solutions. Experiments were conducted in duplicate in a non-serial manner. The total incubation volume per replicate was 150 μl. Sampling time points for test items were 0, 0.5, 2, 5, 10, 15 and 30 min. All samples and calibration standards (prepared in FaSSIF) were precipitated by addition of 300 μl precipitant (ACN / 2% acetic acid / 0.2% HFBA, (precipitation reagent, PR)) containing internal standard (ISTD) to 150 μl sample. After incubation for 1 h at room temperature all samples were centrifuged for 10 min at 2,200×g (room temperature).

Row | SMILES | Emax (mouse GLP1 receptor) | EC50 (mouse GLP1 receptor) | Emax (mouse GLP2 receptor) | EC50 (mouse GLP2 receptor) | Emax (human GLP1 receptor) | EC50 (human GLP1 receptor) | Emax (human GLP2 receptor) | EC50 (human GLP2 receptor) | remaining at 0.25 h [1] | remaining at 0.5 h ([1]; t=30 mins, pH 6.5, 10 mg/ml pancreatin)
1 | CCCC[C@H](NC(=O)[C@H](CCC(=O)O)NC(=O)[C@H](CC(=O)O)NC(=O)[C@H](CO)NC(=O)[C@H](Cc1ccccc1)NC(=O)[C@H](CO)NC(=O)CNC(=O)[C@H](CC(=O)O)NC(=O)C(C)(C)NC(=O)[C@@H](N)Cc1c[nH]cn1)C(=O)N[C@H](Cc1ccccc1)C(=O)N[C@H]1CCCCNC(=O)C[C@@H](C(=O)N[C@@H](CCCCN)C(=O)N[C@@H](C)C(=O)N[C@@H](C)C(=O)N[C@@H](CCCCN)C(=O)N[C@@H](CC(=O)O)C(=O)N[C@@H](Cc2ccccc2)C(=O)N[C@H](C(=O)N[C@@H](CC(N)=O)C(=O)N[C@@H](Cc2c[nH]c3ccccc23)C(=O)N[C@@H](CC(C)C)C(=O)N[C@H](C(=O)N[C@@H](CCC(N)=O)C(=O)N[C@H](C(=O)N[C@@H](CCCCN)C(=O)N[C@H](C(=O)N[C@H](C(=O)N[C@@H](CC(=O)O)C(N)=O)[C@@H](C)O)[C@@H](C)CC)[C@@H](C)O)[C@@H](C)CC)[C@@H](C)CC)NC(=O)[C@H](CC(=O)O)NC(=O)[C@H](CC(C)C)NC(=O)[C@H]([C@@H](C)CC)NC1=O [Example 88] (H-H[Aib]DGSFSDE[Nle][dF]KILDDKAAKDFINWLIQTKITD-NH2; lactam 12-16) | 96.4% | 0.1 nM | 98.7% | 0.00631 nM | 99.2% | 1.26 nM | 102% | 0.00316 nM | 0.5% | 
2 | CCCC[C@H](NC(=O)[C@H](CCC(=O)O)NC(=O)[C@H](CC(=O)O)NC(=O)[C@H](CO)NC(=O)[C@H](Cc1ccccc1)NC(=O)[C@H](CO)NC(=O)CNC(=O)[C@H](CC(=O)O)NC(=O)C(C)(C)NC(=O)[C@@H](N)Cc1c[nH]cn1)C(=O)N[C@H](Cc1ccccc1)C(=O)N[C@H](C(=O)N[C@H](C(=O)N[C@@H](CC(C)C)C(=O)N[C@@H](CC(=O)O)C(=O)N[C@H]1CCCCNC(=O)CC[C@@H](C(=O)N[C@@H](CC(=O)O)C(=O)N[C@@H](Cc2ccccc2)C(=O)N[C@H](C(=O)N[C@@H](CC(N)=O)C(=O)N[C@@H](Cc2c[nH]c3ccccc23)C(=O)N[C@@H](CC(C)C)C(=O)N[C@H](C(=O)N[C@@H](CCC(N)=O)C(=O)N[C@H]2CCCCNC(=O)CC[C@@H](C(N)=O)NC(=O)[C@H]([C@@H](C)O)NC(=O)[C@H]([C@@H](C)CC)NC(=O)[C@H](CCCCN)NC2=O)[C@@H](C)CC)[C@@H](C)CC)NC(=O)[C@H](C)NC(=O)[C@H](C)NC(=O)[C@H](CCCCN)NC1=O)[C@@H](C)CC)[C@@H](C)O [Example 113] (H-H[Aib]DGSFSDE[Nle][dF]TILDKKAAEDFINWLIQKKITE-NH2; lactam 16-20, 29-33; C-terminus assumed) | 96.3% | 1.58 nM | 99.2% | 0.2 nM | 97% | 2 nM | 101% | 0.00316 nM | 3.4% | 
3 | CCCC[C@H](NC(=O)[C@H](CCC(=O)O)NC(=O)[C@H](CC(=O)O)NC(=O)[C@H](CO)NC(=O)[C@H](Cc1ccccc1)NC(=O)[C@H](CO)NC(=O)CNC(=O)[C@H](CC(=O)O)NC(=O)C(C)(C)NC(=O)[C@@H](N)Cc1c[nH]cn1)C(=O)N[C@H](Cc1ccccc1)C(=O)N[C@H]1CCC(=O)NCCCC[C@@H](C(=O)N[C@@H](CCCCN)C(=O)N[C@@H](C)C(=O)N[C@@H](C)C(=O)N[C@@H](CCCCN)C(=O)N[C@@H](CC(=O)O)C(=O)N[C@@H](Cc2ccccc2)C(=O)N[C@H](C(=O)N[C@@H](CC(N)=O)C(=O)N[C@@H](Cc2c[nH]c3ccccc23)C(=O)N[C@@H](CC(C)C)C(=O)N[C@H](C(=O)N[C@@H](CCC(N)=O)C(=O)N[C@H](C(=O)N[C@@H](CCCCN)C(=O)N[C@H](C(=O)N[C@H](C(=O)N[C@@H](CC(=O)O)C(N)=O)[C@@H](C)O)[C@@H](C)CC)[C@@H](C)O)[C@@H](C)CC)[C@@H](C)CC)NC(=O)[C@H](CC(=O)O)NC(=O)[C@H](CC(C)C)NC(=O)[C@H]([C@@H](C)CC)NC1=O [Example 87] (H-H[Aib]DGSFSDE[Nle][dF]EILDKKAAKDFINWLIQTKITD-NH2; lactam 12-16 (inferred); C-terminus assumed) | 91.4% | 0.631 nM | 99.2% | 0.00631 nM | 98.7% | 2.51 nM | 102% | 0.00251 nM | 1.7% | 
4 | CCCC[C@@H]1NC(=O)[C@H](CCC(=O)O)NC(=O)[C@@H](NC(=O)[C@H](CO)NC(=O)[C@H](Cc2ccccc2)NC(=O)[C@H](CO)NC(=O)CNC(=O)[C@H](Cc2nn[nH]n2)NC(=O)C(C)(C)C(=O)NCCc2c[nH]cn2)CCCCNC(=O)C[C@@H](C(=O)N[C@H](C(=O)N[C@@H](CC(C)C)C(=O)N[C@@H](CC(=O)O)C(=O)N[C@H]2CC(=O)NCCCC[C@@H](C(=O)N[C@@H](CC(=O)O)C(=O)N[C@@H](Cc3ccccc3)C(=O)N[C@H](C(=O)N[C@@H](CC(N)=O)C(=O)N[C@@H](Cc3c[nH]c4ccccc34)C(=O)N[C@@H](CC(C)C)C(=O)N[C@H](C(=O)N[C@@H](CCC(N)=O)C(=O)N[C@H](C(=O)N[C@H]3CCC(=O)NCCCC[C@@H](C(N)=O)NC(=O)[C@H]([C@@H](C)O)NC(=O)[C@H]([C@@H](C)CC)NC3=O)[C@@H](C)O)[C@@H](C)CC)[C@@H](C)CC)NC(=O)[C@H](C)NC(=O)[C@H](C)NC(=O)[C@H](CCCCN)NC2=O)[C@@H](C)CC)NC(=O)[C@@H](Cc2ccccc2)NC1=O [Example 1] ({Malonyl(2,2-Me2,histaminyl)}-[Ala(1H-tetrazol-5-yl)]GSFSKE[Nle][dF]DILDDKAAKDFINWLIQTEITK-NH2; lactam 6-10, 14-18, 28-31) | 91.5% | 0.126 nM | 97.7% | 10 nM | 90.1% | 0.794 nM | 103% | 0.398 nM |  | 5%

Source: patent US20240270809A1, “ORAL GLP RECEPTOR AGONISTS” (priority 2020, published 2024)
